Laboratory results from patent US20250082763A1, “COMBINATION DRUG FOR TREATING TRIPLE-NEGATIVE BREAST CANCER” (HINOVA PHARMACEUTICALS INC., priority 2022, published 2025).

Tests used:
Format in all cases: cell-based
SUM159PT = test: Antiproliferation, CellTiter-Glo, 5 days, SUM159PT; conditions: Homo sapiens, SUM-159-PT, 120 h, AR+ TNBC
Description: (§1) Cells were treated with serial dilutions of tested compounds with the maximum working concentration of 10 μM. Cell survival was measured 5 days later using a CellTiter-Glo luminescent cell viability assay kit (Promega Corporation). Luminescence was recorded by FLUOstar Omega microplate reader (BMG Labtech). Half maximal inhibitory concentration (IC50) was determined with GraphPad Prism using baseline correction (by normalizing to dimethyl sulfoxide (DMSO) control)

MDA-MB-468 = test: Antiproliferation, CellTiter-Glo, 5 days, MDA-MB-468; conditions: Homo sapiens, 120 h, MDA-MB-468, AR− TNBC
Description: as §1, with “For MDA-MB-453, MFM-223, SUM159PT, MDA-MB-468, and HCC1937, 4,000, 3,000, 1,000, 3,000, and 3,000 cells were plated per well in 96-well microplates (Corning Inc), respectively. Cells” for “Cells”

MDA-MB-453 cells = test: Combination with PI3K inhibitor Alpelisib, proliferation of MDA-MB-453 cells, Combination Index; conditions: molar ratio to Alpelisib 1:27-9:1, 7 days
Description: Triple negative breast cancer MDA-MB-453 cells in logarithmic growth stage were inoculated into a 96-well plate at a concentration of 4×10^3 cells/well, and then incubated in an incubator at 37° C., 5% CO2, and saturated humidity for 24 h. To the negative control wells, were added RPMI 1640 cell culture medium containing 10% fetal bovine serum in the same volume as the drug. After cultured for 24 h, to the 96-well plate, were sequentially added AR PROTACs compounds 279, 281, 282, ARV-110, ARV-766 and PI3K inhibitor Alpelisib, respectively.
After addition of the drugs and co-incubation for 7 days, 10 μL of CCK-8 was added to each well, and then the plate was further cultured for 2 h. The absorbance value (OD) of each well was measured using a microplate reader at a wavelength of 450 nm. The survival rate was calculated using Prism software, the relative survival rate=(OD value of drug well/OD value of control well)×100%. Alternatively, 100 μL of medium was removed from each well, and then 50 μL of CTG was added. The plate was shaken in the dark for 2 min, allowed to stand for 10 min, and then measured using a microplate reader in Luminescence mode. Prism software was used to calculate the survival rate, the relative survival rate=(the RLU value of drug well/the RLU value of control well)×100%.

[1] = test system: AR+ TNBC cells (MDA-MB-453, SUM159PT and MFM-223) and AR- TNBC (MDA-MB-468 and HCC1937); test: Antiproliferation in AR positive and negative TNBC cells (summary over the cell line panel); conditions: AR+ TNBC cells: MDA-MB-453, SUM159PT and MFM-223
Description: as §1, with “For MDA-MB-453, MFM-223, SUM159PT, MDA-MB-468, and HCC1937, 4,000, 3,000, 1,000, 3,000, and 3,000 cells were plated per well in 96-well microplates (Corning Inc), respectively. Cells” for “Cells”

Androgen Receptor = target: T1, Androgen Receptor (Homo sapiens, UniProt P10275); test: AR degradation in AR positive TNBC cells, western blotting; conditions: MDA-MB-453, SUM159PT and MFM-223 cells, 24 hours, up to 1 μM, western blot
T1 construct: endogenous in cells
T1 sequence (P10275 1-920): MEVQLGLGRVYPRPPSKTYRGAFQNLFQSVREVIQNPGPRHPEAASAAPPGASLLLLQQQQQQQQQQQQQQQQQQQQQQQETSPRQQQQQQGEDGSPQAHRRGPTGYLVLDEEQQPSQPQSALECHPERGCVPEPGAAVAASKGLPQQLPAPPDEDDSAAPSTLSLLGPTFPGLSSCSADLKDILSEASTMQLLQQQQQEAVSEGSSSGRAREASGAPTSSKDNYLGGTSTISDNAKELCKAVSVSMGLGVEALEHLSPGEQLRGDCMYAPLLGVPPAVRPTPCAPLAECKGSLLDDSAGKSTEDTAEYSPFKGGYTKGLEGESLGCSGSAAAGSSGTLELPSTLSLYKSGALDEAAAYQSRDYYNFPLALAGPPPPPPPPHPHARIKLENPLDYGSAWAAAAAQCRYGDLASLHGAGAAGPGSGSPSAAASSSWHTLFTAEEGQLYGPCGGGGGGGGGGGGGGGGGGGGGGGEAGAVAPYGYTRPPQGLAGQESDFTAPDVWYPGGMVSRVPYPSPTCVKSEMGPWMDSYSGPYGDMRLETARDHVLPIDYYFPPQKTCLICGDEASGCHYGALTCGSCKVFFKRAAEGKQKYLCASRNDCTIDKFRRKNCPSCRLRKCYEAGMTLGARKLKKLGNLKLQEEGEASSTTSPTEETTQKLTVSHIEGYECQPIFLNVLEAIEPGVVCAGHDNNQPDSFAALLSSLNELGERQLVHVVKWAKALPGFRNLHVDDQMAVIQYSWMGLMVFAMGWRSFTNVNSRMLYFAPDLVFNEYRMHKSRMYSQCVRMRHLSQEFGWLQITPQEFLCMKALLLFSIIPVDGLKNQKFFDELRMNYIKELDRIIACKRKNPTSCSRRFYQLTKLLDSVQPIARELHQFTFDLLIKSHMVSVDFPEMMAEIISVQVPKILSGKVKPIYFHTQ
Description: Cells were plated in 12-well microplates and incubated at 37° C. overnight for attachment. Cells were then treated for 24 hours with serial dilutions of tested compounds with the maximum working concentration of 1 μM. Cell lysate were subjected to the western blotting assay against AR antibody.
Primary antibodies: Androgen Receptor (D6F11) XP® Rabbit mAb; Anti-GAPDH Rabbit mAb; Secondary antibody: Goat Anti-Rabbit IgG H&L (HRP)

AR degradation (words, FIG. 1) (Androgen Receptor) | Compound | IC50 (SUM159PT) [nM] | IC50 (MDA-MB-468) [nM] | effect of the combination with Alpelisib on inhibiting proliferation (CI<1 = synergistic) (MDA-MB-453 cells) | anti-proliferation activity in AR+ TNBC cells [1]
 | N#Cc1ccc(O[C@H]2CC[C@H](NC(=O)c3ccc(N4CCC(CN5CCN(c6cc7c(cc6F)C(=O)N(C6CCC(=O)NC6=O)C7=O)CC5)CC4)nn3)CC2)cc1Cl (some centres unmarked) [ARV-110, reference compound] | 1600 | > 10000 | synergistic effect | 
superior degradation activity | N#Cc1ccc(O[C@H]2CC[C@H](NC(=O)c3cnc(N4CCC(CN5CCC6(CC5)CN(c5ccc7c(c5)C(=O)N(C5CCC(=O)NC5=O)C7=O)C6)CC4)nn3)CC2)cc1Cl (some centres unmarked) [Compound 279] | 440 | > 10000 | synergistic effect | superior anti-proliferation activity
